The text below walks through data of PubChem BioAssay (NCI).

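Cultured in 96-well plates, cells were exposed to test compound for 48 hours across five concentrations. GI50: concentration for 50% inhibition of growth. TGI denotes the concentration required for complete inhibition of growth.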

What all share (experiment): growth of human tumour cells (NCI), 48 h
Assay [1] concerns SNB-75 CNS.
For assay [2], the system named is HL-60(TB) leukemia.
Assay [3] has as its system SK-MEL-28 melanoma.
Assay [4] concerns SK-OV-3 ovarian.
Assay [5] has as its system SF-539 CNS.
Assay [6] has as its system ACHN renal.
Assay [7] deals with IGROV1 ovarian.
The subject of assay [8] is KM12 colon.
For assay [9], the system named is MDA-N.
Assay [10] relates to HCT-15 colon.
The test system of assay [11] is NCI-H522 lung.
For assay [12], the system named is SNB-19 CNS.

For the molecule `O=C1OC(c2ccc(O)c(Cl)c2)(c2ccc(O)c(Cl)c2)c2ccc(Br)c3cccc1c23` (tested in a mixture with another compound), the TGI in assay [1] was found to be 37.8 µM; in [2] it was 41.8 µM; in assay [3] it was 36 µM; in assay [4] it was 32.2 µM; in [5], 32.4 µM; in assay [6], 27.2 µM. The TGI in assay [7] is 44.5 µM; in [8] it was 42.2 µM; in assay [9] it was 45.9 µM; in assay [10], 44 µM; in [11], 35.7 µM; in [12], 44.4 µM. In addition, the GI50 was 17.5 µM in assay [2], 13.9 µM in assay [6] and 17.8 µM in [11].

Consider `C1COC(NC(C2CC2)C2CC2)=N1`, for which the TGI in [1], in assay [2], in [3], in assay [4], in [5] and in assay [6] was greater than 100 µM each time. In addition, the TGI in assay [7], in assay [8], in assay [9], in assay [10], in assay [11] and in assay [12] was greater than 100 µM in each case.
